Measured values taken from patent US20040039052A1, “Urinary incontinence therapy” (priority 1997, published 2004).
Marks after values point to notes of the source that are not given here.

Experiments:
[1] = tested on: patients with MS (detrusor hyperreflexia); test: separate study: RTX instillation in patients with MS; assay type: in vivo, human; design: LVA Lost volume after RTX / CAPA Capacity after RTX: unit not given here
[2] = tested on: normal human volunteers and patients with unstable detrusor; settings: 10^−8M (0.01 μM) RTX intravesicular, cited from earlier work
[3] = tested on: patients having bladder hyperactivity; test: 14-patient study: single intravesical RTX instillation; fill cystometry (MCC), urination diary; assay type: in vivo, human; settings: for Bladder Capacity, % Change / Bladder Capacity, Change from Pre-RTX: Bladder Capacity <200 mL; for Bladder Capacity, % Change / Bladder Capacity, Change from Pre-RTX / Bladder Capacity: n 7; for Mean Incontinent Episodes/day, % Change / Mean Incontinent Episodes/day, Difference from Pre-RTX / Mean Incontinent Episodes/day: n = 8; for Mean incontinent episodes: Pre-RTX 2.1; for Mean bladder capacity: Pre-RTX 182; for Bladder Capacity: patients with Bladder Capacity <200 mL, Pre-RTX 86; for Mean Incontinent Episodes/day: Pre-RTX 3.6
Text: Clinical studies reported herein include the following: observations from the patient's urination diary and their overall assessment of bladder function, maximum cystometric capacity of the bladder, and daily urinary frequency and incontinence episodes. […] Useful and effective treatment is that which alleviates any of the symptoms associated with neurogenic urinary dysfunction.
Patients chosen for study were of either sex, between the ages of 30 and 75, and weighing between 60 kg and 110 kg. Patients were selected having bladder hyperactivity associated with spinal cord injury, multiple sclerosis, peripheral neuropathy, muscular dystrophy or bladder instability. Pregnant women were excluded from the study as were those exposed to any other investigational drug within 30 days of baseline, those exposed to drugs affecting bladder performance or detrusor function within 10 days of baseline, those with known chemical addiction, those with seizure activity or major psychiatric disorders, and those with clinically significant cardiovascular, renal or hepatic disease, upper respiratory disease, malignant disease or clinically significant abnormal clinical laboratory values. Patients taking anti-cholinergic drugs were generally excluded except in a rare instance at the discretion of the investigator, in which case the dosage of anti-cholinergic drug was not changed during the study. Patients previously treated with capsaicin were first monitored to insure a return to baseline parameters in the absence of capsaicin. Preliminary studies to determine RTX dosage efficacy were performed with patients who had previous experience with intravesical capsaicin administration for treatment of bladder hyperactivity. Once a dose range for the study was determined, both previously capsaicin-treated and -untreated patients were employed.
The molecular weight of RTX is 628.72 for the clinical studies described herein. A 10 μM stock solution, 6.3 μg/mL was prepared by dissolving 6.32 mg of 99.5% pure RTX in 1000 mL absolute ethanol. Solutions for therapeutic use were diluted from the ethanolic stock solution into sterile normal saline (0.9% w/v NaCl) or a saline-ethanol mixture such that the final solution was 10% (v/v) ethanol. Therapeutic efficacy was tested for RTX concentrations of 1 μM, 0.1 μM and 0.05 μM. […] Prior to administration, RTX solutions were sterilized by filtration.
Fill cystometry: A two-way 8 F urethral catheter was inserted in the bladder under clean conditions. The residual urine was emptied. Infusion of saline at body temperature was started at a constant speed of […]. Patients were asked to indicate the moment of first desire to void (FDV) and any other sensation. The infusion was stopped at compulsive desire to void and the infused volume taken as the maximal cystometric capacity (MCC). Bladder pressure at which MCC occurs was also recorded. A prophylactic antibiotic (ciprofloxacin, 500 mg every 8 hours) was given during the next 48 hours.
Ice-Water test: The patient was clean catheterized with a two-way urethral catheter. A volume of 50 ml of iced saline (or half of the MCC found in cystometry) was put in a catheter-irrigating syringe and injected into the bladder during a period of 20 seconds. Bladder pressure was constantly measured. The test was considered positive (abnormal) if an involuntary bladder contraction was recorded during the next 60 seconds.
RTX Instillation: An 18 or 20 F three-way Foley catheter was used. The balloon was inflated to 20 ml and maintained gently pulled against the bladder neck to reduce leakage of RTX.
Up to 100 mL RTX solution was introduced into an emptied bladder, retained in the bladder for 30 minutes, then the bladder was emptied and rinsed with normal saline. Prior to treatment, baseline measurements of MCC, micturition frequency and ice water test response made. […]
Patients 1, 2, 6, 7, 8 and 13 received 0.05 μM RTX. The rest received 0.1 μM RTX. […]

[4] = day 14, Frequency ≧ 10/day, n = 7
[5] = day 14, Incontinence > episode/day
[6] = day 14, intent-to-treat, n = 14
[7] = day 30, Frequency ≧ 10/day, n = 7
[8] = day 30, Incontinence > episode/day
[9] = day 30, intent-to-treat, n = 14
[10] = day 60, Frequency ≧ 10/day, n = 7
[11] = day 60, Incontinence > episode/day
[12] = day 60, intent-to-treat, n = 14
[13] = day 90, Frequency ≧ 10/day, n = 7
[14] = day 90, Incontinence > episode/day
[15] = day 90, intent-to-treat, n = 14
[16] = patients able to do spontaneous micturitions

Structure (SMILES): C=C(C)[C@]12C[C@@H](C)[C@@]34O[C@](Cc5ccccc5)(O[C@@H]1[C@@H]3C=C(COC(=O)Cc1ccc(O)c(OC)c1)C[C@]1(O)C(=O)C(C)=C[C@@H]41)O2 [RTX, resiniferatoxin]
- CAPA Capacity after RTX ([1]; Patient 6, Dose 500 nM, one month after treatment, CAPB before RTX 200): 360
- DA Drug after RTX ([1]; Patient 6, Dose 500 nM, one month after treatment, DB before RTX 2): 01
- LVA Lost volume after RTX ([1]; Patient 6, Dose 500 nM, one month after treatment, LVB before RTX 60): 10
- ULPA Urine loss pressure after RTX ([1]; Patient 6, Dose 500 nM, one month after treatment, ULPB before RTX 96): 40
- LVA Lost volume after RTX ([1]; Patient 7 (stress incontinent), Dose 500 nM, one month after treatment, LVB 100): 80*
- CAPA Capacity after RTX ([1]; Patient 7, Dose 500 nM, one month after treatment, CAPB 180): 750
- DA Drug after RTX ([1]; Patient 7, Dose 500 nM, one month after treatment, DB 2): 1
- ULPA Urine loss pressure after RTX ([1]; Patient 7, Dose 500 nM, one month after treatment, ULPB 63): 36
- CAPA Capacity after RTX ([1]; Patient 9, Dose 1000 nM, one month after treatment, CAPB 100): 300
- DA Drug after RTX ([1]; Patient 9, Dose 1000 nM, one month after treatment, DB 2): 2
- LVA Lost volume after RTX ([1]; Patient 9, Dose 1000 nM, one month after treatment, LVB 180): 0
- ULPA Urine loss pressure after RTX ([1]; Patient 9, Dose 1000 nM, one month after treatment, ULPB 32): 30
- CAPA Capacity after RTX ([1]; Patient 10, Dose 1000 nM, one month after treatment, CAPB 280): 460
- DA Drug after RTX ([1]; Patient 10, Dose 1000 nM, one month after treatment, DB 2): 2
- LVA Lost volume after RTX ([1]; Patient 10, Dose 1000 nM, one month after treatment, LVB 180): 0
- ULPA Urine loss pressure after RTX ([1]; Patient 10, Dose 1000 nM, one month after treatment, ULPB 46): 44
- urge and leakage around indwelling catheter ([1]; bedridden MS patient, 100 ml of 1 μM solution, six weeks): no urge and no leakage
- Urinary loss ([1]; four MS patients, one month after treatment): decreased after instillation of RTX in all four patients
- sensations upon administration ([2]; human subjects): no micturition reflex or burning upon administration
- volume required to elicit first desire to void ([2]; patients having unstable detrusor): Three of five patients having unstable detrusor reported an increased volume
- patients with meaningful effects, decreases in frequency, urge or wetness ([3]; 14-patient study): 71%
- MCC ([3]; Patient #10 (spinal cord injury), 100 μM RTX instillation, day 14, Baseline MCC 80 ml): 500 mL
- leaks on the worst day ([3]; Patient #10, 100 μM RTX instillation, before treatment incontinence episodes more than 7 times per day): 2-3 times per day
- incontinence episodes, Case #11 ([3]; after RTX (0.1 μM), no improvement during placebo): substantially decreased incontinence episodes
- symptoms evoked by RTX instillation ([3]; all patients, noted by a few patients during the first minutes of the treatment): itching or mild discomfort were the only symptoms evoked by RTX
- incontinence episodes, Case #7 ([3]; between days 14 and 30 post-treatment, 0.05 μM, prior: at least once between catheterizations): only one incontinence episode
- Bladder Capacity, % Change ([3]; day 14): +224%
- Bladder Capacity, Change from Pre-RTX ([3]; day 14): +193 mLs
- Mean Frequency/day, % Change [3, 4]: −34%
- Mean Frequency/day, Change from Pre-RTX [3, 4]: -5.3 day⁻¹
- Mean Incontinent Episodes/day, % Change [3, 5]: −44%
- Mean Incontinent Episodes/day, Difference from Pre-RTX [3, 5]: -1.6 day⁻¹
- Mean Frequency/day ([3]; day 14, intent-to-treat analysis, n = 14, Pre-RTX 9.1): 6.9 day⁻¹
- Mean Frequency/day, Difference from pre-RTX [3, 6]: -2.2 day⁻¹
- Mean bladder capacity, Difference from pre-RTX [3, 6]: 95 mL
- Mean incontinent episodes, Difference from pre-RTX [3, 6]: −1.0
- Mean incontinent episodes [3, 6]: 1.0
- Mean bladder capacity [3, 6]: 277 mL
- Bladder Capacity ([3]; day 14, single instillation 0.05 or 0.1 μM): 279 mLs
- Mean Frequency/day ([3]; day 14, patients with Frequency ≧ 10/day, n = 7, Pre-RTX 15.7): 10.4 day⁻¹
- Mean Incontinent Episodes/day ([3]; day 14, patients with Incontinence > episode/day): 2.0 day⁻¹
- Bladder Capacity, % Change ([3]; day 30): +156%
- Bladder Capacity, Change from Pre-RTX ([3]; day 30): +134 mLs
- Mean Frequency/day, % Change [3, 7]: −28%
- Mean Frequency/day, Change from Pre-RTX [3, 7]: -4.4 day⁻¹
- Mean Frequency/day ([3]; day 30, Frequency ≧ 10/day, n = 7, Pre-RTX 15.7): 11.3 day⁻¹
- Mean Incontinent Episodes/day, % Change [3, 8]: −64%
- Mean Incontinent Episodes/day, Difference from Pre-RTX [3, 8]: -2.3 day⁻¹
- Mean Incontinent Episodes/day [3, 8]: 1.3 day⁻¹
- Mean Frequency/day, Difference from pre-RTX [3, 9]: -1.6 day⁻¹
- Mean bladder capacity, Difference from pre-RTX [3, 9]: 64 mL
- Mean incontinent episodes, Difference from pre-RTX [3, 9]: −1.4
- Mean incontinent episodes [3, 9]: 0.7
- Mean Frequency/day ([3]; day 30, intent-to-treat, n = 14, Pre-RTX 9.1): 7.5 day⁻¹
- Mean bladder capacity [3, 9]: 247 mL
- Bladder Capacity ([3]; day 30): 220 mLs
- Bladder Capacity, % Change ([3]; day 60): +159%
- Bladder Capacity, Change from Pre-RTX ([3]; day 60): +137 mLs
- Mean Frequency/day, % Change [3, 10]: −34%
- Mean Frequency/day, Change from Pre-RTX [3, 10]: -5.3 day⁻¹
- Mean Frequency/day ([3]; day 60, Frequency ≧ 10/day, n = 7, Pre-RTX 15.7): 10.4 day⁻¹
- Mean Incontinent Episodes/day, % Change [3, 11]: −67%
- Mean Incontinent Episodes/day, Difference from Pre-RTX [3, 11]: -2.4 day⁻¹
- Mean Incontinent Episodes/day [3, 11]: 1.2 day⁻¹
- Mean Frequency/day, Difference from pre-RTX [3, 12]: -2.1 day⁻¹
- Mean bladder capacity, Difference from pre-RTX [3, 12]: 45 mL
- Mean incontinent episodes, Difference from pre-RTX [3, 12]: −1.7
- Mean incontinent episodes [3, 12]: 0.4
- Mean Frequency/day ([3]; day 60, intent-to-treat, n = 14, Pre-RTX 9.1): 7.0 day⁻¹
- Mean bladder capacity [3, 12]: 228 mL
- Bladder Capacity ([3]; day 60): 223 mLs
- Bladder Capacity, Change from Pre-RTX ([3]; day 90): +191 mLs
- Mean Frequency/day, % Change [3, 13]: −31%
- Mean Frequency/day, Change from Pre-RTX [3, 13]: -4.9 day⁻¹
- Mean Frequency/day ([3]; day 90, Frequency ≧ 10/day, n = 7, Pre-RTX 15.7): 10.8 day⁻¹
- Mean Incontinent Episodes/day, % Change [3, 14]: −58%
- Mean Incontinent Episodes/day, Difference from Pre-RTX [3, 14]: -2.1 day⁻¹
- Mean Incontinent Episodes/day [3, 14]: 1.5 day⁻¹
- Mean Frequency/day, Difference from pre-RTX [3, 15]: -2.6 day⁻¹
- Mean bladder capacity, Difference from pre-RTX [3, 15]: 148 mL
- Mean incontinent episodes, Difference from pre-RTX [3, 15]: −1.5
- Mean incontinent episodes [3, 15]: 0.6
- Mean Frequency/day ([3]; day 90, intent-to-treat, n = 14, Pre-RTX 9.1): 6.2 day⁻¹
- Mean bladder capacity [3, 15]: 330 mL
- Bladder Capacity ([3]; day 90): 277 mLs
- positive benefit on incontinent episodes ([3]; eight evaluable patients with more than one incontinent episode/day): only one did not show a positive benefit
- patients in whom bladder capacity (MCC) increased ([3]; out of the 14 patients): 11
- duration of decreased frequency post-treatment [3, 16]: up to 60 days
- improvement in MCC [3, 16]: All patients in the group but one (#1) showed clear improvement (increase) in MCC
- reported improvement after RTX administration ([3]; patients requiring self-catheterization or supra-pubic maneuvers (#4, 5, 7, 8 and 11)): all but one (#4) reported improvement
- full continence after RTX instillation ([3]; patients who were entirely incontinent (#3, 4, 6, 9, 12, 13 and 14)): five (#3, 6 and 9, 12 and 13) achieved full continence
- duration of effect of a single instillation ([3]; single instillation): up to 6 months
